Assay: Solubility evaluation at room temperature in methyl benzoate and ethyl benzoate
Type: physicochemical
Conditions: for solubility: room temperature, concentration of 2 wt %
Description: The solubility of each of the compound prepared in the synthesis examples and the comparative compound [BH1] was measured at room temperature in methyl benzoate and ethyl benzoate. The case in which all the components were dissolved at a concentration of 2 wt % was evaluated as O, and the case in which all the components were not dissolved was evaluated as X, and the results are shown in the following Table 1.

| SMILES | solubility with respect to methyl benzoate [wt %] | solubility (ethyl benzoate) | solubility (methyl benzoate) |
| --- | --- | --- | --- |
| c1ccc2c(-c3c4ccccc4c(-c4cccc5ccccc45)c4ccccc34)cccc2c1 [BH1, reference compound] | < 2 | – | – |
| CC(C)c1cc(-c2c3ccccc3c(-c3cc4ccccc4c4ccccc34)c3ccccc23)cc(C(C)C)c1 [Compound 46] | – | ◯ | ◯ |
| [2H]c1c([2H])c([2H])c(-c2c3ccccc3c(-c3c(CCC)c4ccccc4c4ccccc34)c3ccccc23)c([2H])c1[2H] [Compound 55] | – | ◯ | ◯ |
